# Measurements from PMC7581728, “Sapitinib Reverses Anticancer Drug Resistance in Colon Cancer Cells Overexpressing the ABCB1 Transporter” (Frontiers in Oncology, 2020).
# pEC50: −log10 of the molar value.
# Molecular target: T1, ABCB1 (Homo sapiens, UniProt P08183)
# T1 construct: ABCB1 transporter in membrane vesicles of High Five insect cells
# Assay: vanadate-sensitive ATPase stimulation in ABCB1 membrane vesicles ([…] maximum); also raised [3H]-paclitaxel accumulation in SW620/Ad300 cells
# Type: biochemical
# T1 sequence (P08183 whole entry): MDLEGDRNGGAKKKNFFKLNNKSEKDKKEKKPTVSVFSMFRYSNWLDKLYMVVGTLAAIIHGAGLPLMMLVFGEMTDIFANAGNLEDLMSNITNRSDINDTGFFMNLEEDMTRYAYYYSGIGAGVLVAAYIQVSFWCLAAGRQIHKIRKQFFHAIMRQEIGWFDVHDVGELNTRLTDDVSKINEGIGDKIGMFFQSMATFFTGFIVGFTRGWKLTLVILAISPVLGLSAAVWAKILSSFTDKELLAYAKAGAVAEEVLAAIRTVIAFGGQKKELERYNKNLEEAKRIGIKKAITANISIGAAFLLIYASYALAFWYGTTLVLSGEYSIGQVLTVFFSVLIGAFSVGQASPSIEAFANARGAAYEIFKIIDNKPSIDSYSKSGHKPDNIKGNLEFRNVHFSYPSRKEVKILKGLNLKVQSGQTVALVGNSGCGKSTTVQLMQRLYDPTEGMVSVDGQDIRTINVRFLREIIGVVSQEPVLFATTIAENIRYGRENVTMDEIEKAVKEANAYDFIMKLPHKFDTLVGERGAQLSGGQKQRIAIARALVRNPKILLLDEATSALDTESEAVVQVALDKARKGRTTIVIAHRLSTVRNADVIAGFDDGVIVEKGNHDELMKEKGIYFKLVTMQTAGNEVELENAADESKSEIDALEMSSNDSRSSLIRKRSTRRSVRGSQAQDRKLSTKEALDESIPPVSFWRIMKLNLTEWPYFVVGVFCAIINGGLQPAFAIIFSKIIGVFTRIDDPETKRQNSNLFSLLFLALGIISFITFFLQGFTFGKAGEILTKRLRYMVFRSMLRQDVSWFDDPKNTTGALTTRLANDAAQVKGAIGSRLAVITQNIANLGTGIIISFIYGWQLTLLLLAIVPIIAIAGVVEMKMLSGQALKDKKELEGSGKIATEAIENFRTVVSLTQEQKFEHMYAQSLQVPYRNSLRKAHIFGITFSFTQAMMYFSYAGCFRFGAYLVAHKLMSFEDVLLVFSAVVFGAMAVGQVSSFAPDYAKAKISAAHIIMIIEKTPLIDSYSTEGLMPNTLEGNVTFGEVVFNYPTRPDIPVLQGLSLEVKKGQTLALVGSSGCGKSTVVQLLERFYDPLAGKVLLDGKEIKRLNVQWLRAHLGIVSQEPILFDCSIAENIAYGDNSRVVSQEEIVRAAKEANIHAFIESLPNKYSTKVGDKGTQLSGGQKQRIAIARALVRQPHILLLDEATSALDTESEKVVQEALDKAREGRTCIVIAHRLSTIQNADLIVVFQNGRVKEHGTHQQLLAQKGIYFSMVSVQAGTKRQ
smiles,measurement,value
CNC(=O)CN1CCC(Oc2cc3c(Nc4cccc(Cl)c4F)ncnc3cc2OC)CC1 [sapitinib],pEC50,5.28
